Test results taken from patent publication EP0239801B1, “Plant cells resistant to herbicidal glutamine synthetase inhibitors” (THE GENERAL HOSPITAL CORPORATION, priority 1986, dated 1987).
Like-named read-outs stand apart in the source and are kept apart here.

Experiments:
[1] = molecular target: pea leaf glutamine synthetase; details: cited from earlier work
GS = GS activity of cell extracts in the presence of various amounts of phosphinothricin; assay type: biochemical, alfalfa; details: both cell types
Procedure: When the protein patterns of crude cell extracts of the susceptible and resistant cell lines were compared by SDS-polyacrylamide gel electrophoresis, the overproduction of a polypeptide in the molecular weight range 40-42 KD could be observed in the PPT-resistant cell line. Purified GS of alfalfa has the same molecular weight. The enzyme activity of the cell extracts was determined in parallel. The specific GS-activity in the resistant cells was 5-10 fold higher than in wild-type cells. The specific activity of GS in the PPT-resistant cell lines is in the same order of magnitude as in root nodule tissue of alfalfa, which, as all nodule tissues of efficiently dinitrogen fixing legumes, has high GS-activity.

[2] = molecular target: glutamine synthetase from E. coli (Escherichia coli, UniProt P0A9C5); details: competitive inhibitor; cited from earlier work
Chain of glutamine synthetase from E. coli (P0A9C5 2-469): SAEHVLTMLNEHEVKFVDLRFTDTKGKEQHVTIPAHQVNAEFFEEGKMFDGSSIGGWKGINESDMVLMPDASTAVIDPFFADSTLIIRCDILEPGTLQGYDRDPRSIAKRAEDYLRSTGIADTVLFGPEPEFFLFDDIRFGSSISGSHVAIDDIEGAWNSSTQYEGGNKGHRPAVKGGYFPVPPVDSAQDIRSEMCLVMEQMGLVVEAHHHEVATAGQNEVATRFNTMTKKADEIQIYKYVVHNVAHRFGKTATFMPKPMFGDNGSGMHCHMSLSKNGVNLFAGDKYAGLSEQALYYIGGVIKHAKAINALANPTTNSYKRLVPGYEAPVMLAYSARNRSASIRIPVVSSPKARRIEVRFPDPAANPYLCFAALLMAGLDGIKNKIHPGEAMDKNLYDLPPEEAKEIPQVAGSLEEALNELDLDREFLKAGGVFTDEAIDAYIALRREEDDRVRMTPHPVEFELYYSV

dicotyledonous weeds = details: field trials in West Germany, Spain, South Africa, U.S.A. and Japan; Schwerdtle 1981; cited from earlier work
monocotyledonous weeds = details: field trials; Schwerdtle 1981; cited from earlier work
[3] = test system: variant PPT resistant alfalfa cell line; test: Growth of suspension cultures (packed cell volume), selected resistant cells; assay type: cell-based
Procedure: The amide nitrogen of glutamine provides the source of nitrogen for many biosynthetic reactions, indicating a central role for GS in nitrogen metabolism.
Selection is carried out in an appropriate culture medium by cultivating plant cells in the presence of stepwise increases of the herbicidal GS-inhibitor in the medium. After a given period of time has elapsed, such as, for example, a few weeks to several months, it is possible to select a cell population which is several-fold more resistant to the herbicidal GS-inhibitor than the original plant cells. For example, when the cells are alfalfa and the inhibitor is PPT, it has been possible to obtain a PPT-resistant alfalfa cell line after one year of stepwise PPT increases, which line was 20-fold more resistant to PPT than the original line. […] This was never possible by plating wild-type cells.
An alfalfa cell line which is able to grow in the presence of 3 mM L-phosphinothricin in the culture medium was selected. Alfalfa was chosen since it is one of the model plants in which the regeneration of a whole plant from single isolated cells or protoplasts can be readily achieved.
The selection of the phosphinothricin resistant alfalfa line was done by stepwise increase of the inhibitor concentration in the liquid culture medium. […]

SMILES: CS(=N)(=O)CCC(N)C(=O)O (stereo not shown) [MSO, methionine sulfoximime]
- Ki ([1]; read-out: Ki value): 160 µM

SMILES: CP(=O)(O)CC[C@H](N)C(=O)O [PPT, phosphinothricin]
- enzyme inhibition in wild-type versus resistant cell extracts (GS): same degree of enzyme inhibition
- Ki [2]: 5.9 µM
- Ki ([1]; mixed competitive inhibitor, Leason et al. 1982, read-out: apparent Ki value): 73 µM
- weed control (dicotyledonous weeds): well controlled
- weed control (monocotyledonous weeds): somewhat higher quantities were needed for good control

SMILES: CP(=O)(O)CC[C@H](N)C(=O)O [L-phosphinothricin]
- concentration in the culture medium in the presence of which the selected cell line is able to grow [3]: 3 mM
